Test results as given in patent US8907107B2 (Hae Therapeutics Limited, priority 2009, dated 2014).
Marks after values point to notes of the source that are not given here. Blank lines part the entries; values can stand above or below the compound they belong to.

What was measured:
[1] = UV-visible absorption spectra; format: physicochemical; details: for λabs: longest-wavelength band, from compound data
[2] = Fluorescence emission spectra and quantum yield; format: physicochemical; details: for λmax emiss.: 5 × 10^−7 M, excitation 640 nm, slit widths 5 nm
MDA-MB-231 cells [3] = test: Cellular uptake of 16 and 17, CLSM imaging; format: cell-based; details: 5 μM; for cellular uptake: 1 hour incubation, DMEM; for subcellular localisation: 1 hour, 3-D reconstruction, DAPI co-staining
Procedure: These spectroscopic properties correlate perfectly to the optical requirements of commercially available confocal laser scanning microscopy (CLSM) instruments and small animal optical imaging instruments. Cellular uptake of DMEM solutions of 16 and 17 were utilised to illustrate their potential for in vitro imaging. Compounds 16 and 17 were incubated with MDA-MB-231 cells for 1 hour at 5 μM concentration and the excess dye was removed by washing with PBS before visualisation.
(§1) MDA-MB-231 cells were seeded into a 8 well chambered microscopy slide and they were grown overnight in DMEM media at 37° C. in the presence of 5% CO2. The media was then removed and 16 and 17 (5 μM) was added, followed by an incubation period of 1 hour in the dark. Cells were then washed with PBS to remove excess compound. Prior to visualization, cells were fixed in 3.7% formaldehyde solution, co-stained with DAPI and a coverslip was mounted onto the microscopy slide. In a similar way, E. coli cells were incubated with 21 (4 μM) in the dark for 10 minutes. The bacterial cells were washed with PBS and An aliquot of this solution was suspended onto a microscopy slide and allowed to dry. Before imaging, a coverslip was mounted onto the microscopy slide. Images were obtained using an LSM510 META confocal laser scanning microscope equipped with 63× numerical aperture 1.4 objective. DAPI was excited at 364 nm and detected with a band-pass filter 385-470 nm, whilst 16, 17 and 21 were excited at 633 nm and their fluorescence was detected through a 650 nm long-pass filter.

physchem = test: physchem
From the text: A trace pH=6.0, B trace pH=9.0. Excitation at 640 nm, slit widths 10 nm, 5×10^−7 M in water/CrEL.
FIG. 6. […] Excitation at 640 nm, slit widths 20 nm, 5×10^−7 M in water/CrEL. INaCl=150 mmol/L.

MDA-MB-231 cells [4] = test: Confocal imaging of cell internalization and intracellular on/off switching of 8a; format: cell-based
From the text: The difference in averaged whole cell red fluorescence taken from off-cells to on-cells was six-fold (FIG. 7).

E. coli cells = test: Bacterial cell uptake of 21, confocal imaging; format: cell-based, Escherichia coli; details: gram-negative; 4 μM, 10 minutes
Procedure: as §1
(§2) It was envisaged that the bis-cationic nature of sensitizer 21 would be optimal for uptake into prokaryotic cells thereby broadening their utility. […] Confocal imaging confirmed the binding of 21 to both gram-positive and negative bacterial cells (FIGS. 28a, 28b).

S. aureus cells = test: Bacterial cell uptake of 21, confocal imaging; format: cell-based, Staphylococcus aureus; details: gram-positive; 4 μM, 10 minutes
Procedure: as §1, §2

[5] = 730 nm, excitation 640 nm, 5×10^−7 M in water/CrEL

- ε×10^−3 ([1]; CHCl3, at 689 nm): 87.1
- λabs ([1]; CHCl3): 689 nm
- fluorescence quantum yield Φf ([2]; CHCl3, 1 as standard): 0.36
- λemiss ([2]; CHCl3, from compound data): 717 nm
- Φf ([2]; ethanol, 1 used as standard): 0.23
- λmax emiss. ([2]; ethanol): 714 nm
Compound: COCCOCCOCCOc1ccc(-c2cc(-c3ccccc3)c3n2[B-](F)(F)[N+]2=C(c4ccc(OCCNC(=O)OC(C)(C)C)cc4)C=C(c4ccccc4)C2=N3)cc1 [Compound 9]

- ε ([1]; CHCl3, at 691 nm): 76,000 Lmol^−1 cm^−1
- λabs ([1]; CHCl3): 691 nm
Compound: CCN(CC)Cc1ccc(C2=CC(c3ccc(OC)cc3)=[N+]3C2=Nc2c(-c4ccc(CN(CC)CC)cc4)cc(-c4ccc(OC)cc4)n2[B-]3(F)F)cc1 [Compound 20]

- λmax abs. ([1]; CHCl3, 1 × 10^−6 M): 694 nm
- λmax abs. ([1]; CHCl3, 1 × 10^−6 M, as tetra-butylammonium salt): 694^e nm
- λmax abs. ([1]; DMEM, 1 × 10^−6 M): 694 nm
- λmax abs. ([1]; MeOH, 1 × 10^−6 M): 687 nm
- λmax abs. ([1]; PBS/BSA, 1 × 10^−6 M): 692 nm
- Φf ([2]; CHCl3): 0.31
- λmax emiss. ([2]; CHCl3): 726 nm
- λmax emiss. ([2]; DMEM): 728 nm
- λmax emiss. ([2]; PBS/BSA (4×10^−4 M BSA)): 718 nm
Compound: O=S(=O)(O)CCCOc1ccc(C2=[N+]3C(=Nc4c(-c5ccccc5)cc(-c5ccc(OCCCS(=O)(=O)O)cc5)n4[B-]3(F)F)C(c3ccccc3)=C2)cc1 [Compound 17]
- cellular uptake (MDA-MB-231 cells [3]): efficiently taken up by cells
- subcellular localisation (MDA-MB-231 cells [3]): primarily to the cytoplasm

- λmax abs. ([1]; CHCl3, 1 × 10^−6 M): 681 nm
- λmax abs. ([1]; DMEM, 1 × 10^−6 M): 694 nm
- λmax abs. ([1]; MeOH, 1 × 10^−6 M): 681 nm
- λmax abs. ([1]; PBS/BSA, 1 × 10^−6 M): 692 nm
- Φf ([2]; CHCl3): 0.30
- λmax emiss. ([2]; DMEM): 722 nm
- λmax emiss. ([2]; MeOH): 715 nm
- λmax emiss. ([2]; PBS/BSA (4×10^−4 M BSA)): 718 nm
Compound: O=C(O)COc1ccc(C2=[N+]3C(=Nc4c(-c5ccccc5)cc(-c5ccc(OCC(=O)O)cc5)n4[B-]3(F)F)C(c3ccccc3)=C2)cc1 [Compound 16]
- cellular uptake (MDA-MB-231 cells [3]): efficiently taken up by cells
- subcellular localisation (MDA-MB-231 cells [3]): primarily to the cytoplasm

Compound: OC[C@H]1O[C@@H](n2cc(COc3ccc(-c4cc(-c5ccccc5)c5n4[B-](F)(F)[N+]4=C(c6ccc(O)cc6)C=C(c6ccccc6)C4=N5)cc3)nn2)[C@H](O)[C@@H](O)[C@H]1O [Compound 8a]
- λmax abs. ([1]; CH3OH, 5 × 10^−6 M): 687 nm
- pKa (physchem): 6.9
- fluorescence intensity difference between pH 6.6 and 8 (physchem; [5]): 6 fold
- fluorescence intensity difference from pH 6.1 to 7.2 (physchem; [5]): greater than 2 fold
- intracellular emission after addition of basic buffer (MDA-MB-231 cells [4]; aqueous carbonate buffer pH 8.0): almost complete quenching
- subcellular localisation of red emission (MDA-MB-231 cells [4]; incubation 1 h, DAPI co-staining): localised to the cytosol
- intracellular emission after addition of acidic buffer (MDA-MB-231 cells [4]; pH 6.6 buffer): re-established
- difference in averaged whole cell red fluorescence from off-cells to on-cells (MDA-MB-231 cells [4]; pH 8.0 versus pH 6.6 buffer): six-fold

- λmax abs. ([1]; CH3OH, 5 × 10^−6 M): 687 nm
Compound: CC(C)(C)OC(=O)NCCn1cc(COc2ccc(C3=NC(=Nc4[nH]c(-c5ccc(O)cc5)cc4-c4ccccc4)C(c4ccccc4)=C3)cc2)nn1 [Compound 8c, {2-[4-(4-{5-[5-(4-Hydroxyphenyl)-3-phenyl-1H-pyrrol-2-ylimino]-4-phenyl-5H-pyrrol-2-yl}-phenoxymethyl)-[1,2,3]triazol-1-yl]ethyl}carbamic acid t-butyl ester]

Compound: CC[N+](C)(CC)Cc1ccc(C2=CC(c3ccc(OC)cc3)=[N+]3C2=Nc2c(-c4ccc(C[N+](C)(CC)CC)cc4)cc(-c4ccc(OC)cc4)n2[B-]3(F)F)cc1.[I-].[I-] [Compound 21]
- λmax abs. ([1]; CHCl3, 1 × 10^−6 M): 702 nm
- λmax abs. ([1]; DMEM, 1 × 10^−6 M): 709 nm
- λmax abs. ([1]; MeOH, 1 × 10^−6 M): 702 nm
- λmax abs. ([1]; PBS/BSA, 1 × 10^−6 M): 706 nm
- Φf ([2]; CHCl3): 0.22
- λmax emiss. ([2]; CHCl3): 735 nm
- λmax emiss. ([2]; DMEM): 737 nm
- λmax emiss. ([2]; MeOH): 732 nm
- λmax emiss. ([2]; PBS/BSA (4×10^−4 M BSA)): 730 nm
- cellular uptake / binding (E. coli cells): sufficient for cellular uptake
- cellular uptake / binding (S. aureus cells): sufficient for cellular uptake

- λmax abs. ([1]; CH3OH, 5 × 10^−6 M): 687 nm
Compound: O=C(O)CCCn1cc(COc2ccc(C3=NC(=Nc4[nH]c(-c5ccc(O)cc5)cc4-c4ccccc4)C(c4ccccc4)=C3)cc2)nn1 [Compound 8b, 4-[4-(4-[5-[5-(4-Hydroxyphenyl)-3-phenyl-1H-pyrrol-2-ylimino]-4-phenyl-5H-pyrrol-2-yl]-phenoxymethyl)-[1,2,3]triazol-1-yl]butyric acid]
